Laboratory results taken from paper PMC11878344 (Angewandte Chemie (International Ed. in English), 2025).

Assays:
[1] = tested on: serine hydrolases of the mouse brain proteome (MAGL, DAGL, FAAH, ABHD6, ABHD12); test: Competitive multiplex ABPP in mouse brain proteome; type: biochemical; conditions: 1 μM probe
Procedure: (§1) Activity‐based protein profiling (ABPP)[49] was used to determine the selectivity of the reversible probes (9, 10) versus a broad range of other serine hydrolases, including the relevant ECS off‐targets DAGL, FAAH, ABHD6, and ABHD12.[45, 49, 50, 51] The ABPP assay was studied in the mouse brain proteome (MBP) at 1 μM concentration as mouse brain homogenate is the most relevant model system for studying ECS enzymes.[45, 49, 50, 51] […] The irreversible probes 11 and 12 could be used to visualize MAGL by in‐gel SDS‐PAGE fluorescence of MBP samples and, thereby, directly showing the specificity of 11 and 12 towards the two MAGL splicing variants present in MBP over a broad range of concentrations. Starting at 1 nM probe concentration, MAGL was detected and only at elevated concentrations greater than 1 μM, minor off‐target protein labeling at approx. 80 kDa started to appear (Figure 3 B). In addition to testing in mouse brain lysates, we also determined the binding of MAGL probes 9–12 towards a panel of 50 off‐targets via a competitive radioligand binding screen to detect interference with potential safety‐related off‐targets (Figure 3 C).
(§2) Mouse brain sample preparation. […] Protein concentration was determined with Bradford Assay, and samples were diluted to a final concentration of 2.0 mg/mL. […]

[2] = target: T1, MAGL splicing variants in mouse brain proteome (Mus musculus, UniProt O35678); test: In-gel SDS-PAGE fluorescence labeling of mouse brain proteome with irreversible probes; type: biochemical
T1 sequence (O35678 1-303): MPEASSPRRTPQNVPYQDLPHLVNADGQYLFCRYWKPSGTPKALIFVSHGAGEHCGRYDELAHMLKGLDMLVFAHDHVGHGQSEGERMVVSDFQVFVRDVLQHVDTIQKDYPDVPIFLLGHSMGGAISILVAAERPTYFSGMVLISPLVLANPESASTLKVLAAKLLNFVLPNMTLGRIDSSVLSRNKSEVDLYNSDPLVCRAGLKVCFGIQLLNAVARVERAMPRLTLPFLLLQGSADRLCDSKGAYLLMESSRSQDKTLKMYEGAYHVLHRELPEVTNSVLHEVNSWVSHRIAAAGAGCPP
Procedure: as §1, §2

CN(C)c1ccc2c(c1)[Si](C)(C)c1cc(N(C)C)ccc1C21OC(=O)c2ccc(C(=O)NCCCCCOc3ccccc3CC3CC4(C3)CN(C(=O)N3CC5(COC(=O)N5)C3)C4)cc21 (stereo not drawn) [Compound 10]
Blocking of serine hydrolase fluorescence signal (selectivity) [1]: Complete blocking of the fluorescence signal was exclusively observed for MAGL

CN(C)c1ccc2c(c1)[Si](C)(C)c1cc(N(C)C)ccc1C21OC(=O)c2ccc(C(=O)NCCCCCOc3ccccc3CC3CC4(C3)CN(C(=O)OC(C(F)(F)F)C(F)(F)F)C4)cc21 (stereo not drawn) [Compound 12]
Probe concentration at which minor off-target protein labeling (approx. 80 kDa) appears [2]: greater than 1 μM
Probe concentration from which MAGL was detected [2]: ≥ 1 nM
